# According to a melting point compilation (Tetko et al.; mined from patent text by program, amines drawn as free bases though some values may be those of a salt):
row,SMILES,melting point [°C]
1,OC(CCCN1CCC(O)(c2ccc(Cl)cc2)CC1)c1ccc(F)cc1 (stereo unspecified),128 to 130
2,COc1cc(C2CCNCC2)ccc1Nc1ncc2ccc(-c3cccc(S(=O)(=O)NC(C)(C)C)c3)n2n1,201 to 202
3,O=c1[nH]c2ccccc2n1-c1ncnc2nn(C3CCCC3)cc12,236 to 240
4,O=C(CS(=O)c1cccs1)C12CC3CC(CC(C3)C1)C2 (stereo unspecified),114 to 116
5,CCCN1CC(CO)CC2c3cccc4[nH]cc(c34)CC21 (stereo unspecified),166 to 168
6,O=C(O)CCCNCCC(=O)O,148 to 151
7,CC(=O)Nc1ccc2c(c1)NC(=O)C(CCCN1CCN(c3ccc(F)cc3)CC1)O2 (stereo unspecified),111 to 112
8,CCN(CC)C(=O)Cc1c(-c2ccc(OC)cc2)nc2c(C)cc(C)nn12,129 to 131
9,CC(=O)OCC(=O)C1C(C)CC2C3CC(Cl)C4=CC(=O)C=CC4(C)C3=CCC21C (stereo unspecified),181
10,CC(C)C1(C)N=C(c2ncccc2C(=O)O)N(C#N)C1=O (stereo unspecified),150 to 153
11,CCCC1=C(C#N)C(c2cccc(Br)c2)c2c[nH]nc2N1 (stereo unspecified),202 to 205
12,O=C(CC1CCCCC1)Nc1ccc2oc3c(c2c1)CCCCCC3,180 to 181
13,Cc1cc(C)c2c(c1)c1c(n2Cc2ccc(Cl)cc2)C(CC(=O)O)CCC1 (stereo unspecified),187 to 188
14,CC(=O)c1cc(CS(C)=O)ccc1O (stereo unspecified),95 to 97
15,O=C(O)/C=C/c1ccc(-c2nc3c([nH]2)c(=O)n(CC2CCCCC2)c(=O)n3CC2CCCCC2)s1,> 300
16,C=Cn1cc(C(=O)O)c(=O)c2cc(F)c(N3CCC4CCC(C3)N4C)cc21 (stereo unspecified),214 to 215
17,Cc1cn(C)cc(-c2cccc(Cl)c2)c1=O,143 to 144
18,O=C1CCC(c2ccc(-c3ccc(Cl)cc3)cc2)=NO1,190 to 192
19,O=C(Nc1ccc(-n2nc(C(F)(F)F)cc2C(F)(F)F)cc1)c1cccnc1,185 to 188
20,C=CCOC1CC2C3CCC4=CC(=O)CCC4(C)C3(F)C(O)CC2(C)C1(O)C(=O)CO (stereo unspecified),189 to 191
21,"NS(=O)(=O)N1CCC(C2c3ncc(Br)cc3CCc3cc(Cl)cc(Cl)c32)CC1 (single isomer, unassigned; (+))",133 to 134
22,CCCOC(=O)C1=C(C)NC(C(OC)OC)=C(C(=O)OC)C1c1ccccc1C#N (stereo unspecified),139 to 141
23,CC(C)NNC(=O)c1ccc(Cl)c(Cl)c1,112 to 115

row,SMILES,melting point [°C]
1,COC(=O)[C@@H]1C[C@H](OS(=O)(=O)c2ccc(Br)cc2)C(=O)[C@@H]2[C@@]3(C)C[C@@H](c4ccoc4)OC(=O)[C@H]3CC[C@]21C,165 to 166
2,O=C(O)/C=C/c1ccc(-c2nc3c(=O)n(CC4CCCC4)c(=O)n(CC4CCCC4)c3[nH]2)cc1,> 300
3,CCCCCCCCCCCCCCCC(=O)OCC(CO)OC(=O)CCCCCCCCCCCCCCC (stereo unspecified),67 to 68
4,Cc1nc(NC(=O)c2cnn3c(C(F)F)cc(-c4ccc(C(F)(F)F)cc4)nc23)sc1S(=O)(=O)N(C)CCO,216
5,Clc1ccc2c(c1)C(c1ccccc1)=NCc1nnc(-c3ccccc3)n1-2,194
6,COc1ccc2c(c1)C(=O)N(c1ccc3c(c1)n(C)c(=O)n3C)C2,268 to 270
7,Cc1c(C#N)c(N)n(-c2c(Br)cc(C(F)(F)F)cc2Br)c1C,158 to 161
8,Cn1c(=O)c(Cl)nc2ccccc21,124 to 130
9,O=C1C(=O)N(Cc2ccc(Br)cc2F)c2c(Cl)cccc21,164 to 166
10,Cc1ccc2ncc3nc(C(F)(F)F)n(C)c3c2c1,220 to 223
11,CC(=O)Oc1cc2c(s1)C(N1CCCC1=O)CC(C)(C)O2 (stereo unspecified),92 to 93
12,Fc1cccc(Nc2nc(Cl)nc(NC3CCCCCC3)n2)c1,148
13,COc1cc2c(c3c1OC(C)(C)C3)C(c1cccc(N3CCNS3(=O)=O)c1)=NC(C)(C)C2,145 to 147
14,CCCCC(CC)Cn1c2cc(Br)ccc2c2ccc(Br)cc21 (stereo unspecified),95 to 97
15,Cc1c(C(=O)Nc2ccc(N3CCNCC3)c(C#N)c2)cnn1-c1ccc(Cl)cc1,184
16,CCCCC(=O)Nc1cccc2c1C(=O)N(C1CCC(=O)NC1=O)C2=O (stereo unspecified),178 to 179
17,CN(C)C(=NC(=Nc1ccccc1)N1CCOCC1)N(C)C,115 to 119
18,FC(F)(F)c1ccc2c(C3CCNCC3)c[nH]c2c1,210 to 214
19,O=c1oc2c(OCc3nnn[nH]3)c(O)c(OCc3nnn[nH]3)c(O)c2c2c1CCCC2,283 to 286
20,CCc1[nH]nc2c1C(=O)c1c(NC(=O)CN3CCC(CN)CC3)cccc1-2,174 to 176
21,Cc1ccsc1CNC(=O)C(=O)NCCc1ccccn1,122 to 124
22,CN1CCN(C(=S)Nc2cc3sc(C(C)(C)C)nc3cc2N2CCN(C)CC2)CC1,190 to 193
23,CC(C)c1cc(C=CC(=O)Nc2ccc(C(=O)O)cc2)oc1C(C)C,131 to 133

# Other lines, results leading:
row,melting point [°C],SMILES
1,258 to 261,CC(CO)Cn1cnc2c(N)nc3ccccc3c21 (stereo unspecified)
2,123 to 125,CC(C)(C)CC(C)(C)c1cc(-c2ccccc2)c(O)c(-n2nc3ccc(-c4ccccc4)cc3n2)c1
3,138 to 143,CC(C)(C)[Si](ON1C(=O)c2ccccc2C1=O)(c1ccccc1)c1ccccc1
4,223 to 226,O=C(c1ccccc1)N1CCc2[nH]c3cccc(-c4ccccc4)c3c2CC1
5,93 to 94,C=Cc1ccc(OCc2ccccc2)cc1OCC(=O)c1ccc(OC)cc1
6,193 to 195,COc1ccc2[nH]c(C)c(/C=C/C(=O)c3cccnc3)c2c1
7,80 to 87,Cc1ccc(S(=O)(=O)NC(=O)OCCc2ccc(-n3c(CCCc4ccncc4)nc4cc(C(F)(F)F)c(Cl)cc43)cc2)cc1
8,186 to 194,CCc1cc(NCc2ccc3oc(-c4ccccc4C#N)c(Br)c3c2)n2nccc2n1
9,120 to 125,COc1ccccc1NC(=O)Nc1ccc(C2=CCN(C(=O)Nc3ccc(OCCO)cc3Cl)CC2)cc1
10,237 to 239,O=C(NC(Cc1ccc(OCc2ccccc2)cc1)C(=O)O)c1cn2cc(-c3ccc(Cl)cc3Cl)ccc2n1 (stereo unspecified)
11,135,Clc1ncnc2c1c(Nc1ccccc1)nn2Cc1ccccc1
12,64,O=C1NC(=O)C(Cc2ccc(OCCN3c4ccccc4Sc4ccc(C(F)(F)F)cc43)cc2)S1 (stereo unspecified)
13,195 to 197,"CC(Oc1cccc(C=Cc2ccc3ccc(Cl)cc3n2)c1)C(N)=O (single isomer, unassigned; (-))"
14,164 to 165,CCCCCS(=O)(=O)NC(=O)/C=C/c1ccc(OCCOC)cc1Oc1cc(C(F)(F)F)ccc1[N+](=O)[O-]
15,99 to 100,C=CCc1ccc2oc(C(=O)OCC)cc(=O)c2c1O
16,192 to 194,NS(=O)(=O)c1ccc(-n2nc(CO)cc2-c2ccc(Cl)cc2)cc1
17,147,Cc1ccc(NC(=O)c2ccc(C(=O)Nc3ccccc3N)cc2)cc1Nc1nc(-c2cccnc2)cs1
18,131 to 134,CCOc1cc2cc(CO)c(CO)c(-c3ccnc(-n4ccc5ccccc5c4=O)c3)c2cc1OCC
19,230 to 233,CCc1ccccc1-c1cccc2[nH]c(C(=O)O)cc12
20,145 to 147,CNc1nc(-c2cccc(NC(=O)c3ccccc3)c2)c2cc(O)c(OC)cc2n1
21,43 to 46,c1ccc(-c2coc3cc4c(cc23)CCC4)cc1
22,144 to 145,COC(=O)Cc1cn(-c2ccccc2)nc1O
23,119 to 122,CN1Cc2cccc(SCc3ccccc3)c2S1(=O)=O
24,191 to 193,CC1(Oc2ccc(CC(=O)c3ccc4c(c3)CCC4)cc2)CCCC1C(=O)O (stereo unspecified)
25,163 to 165,CCOC(=O)COc1ccc(C(=O)CN2CCN(c3ccncc3)CC2=O)cc1

row,melting point [°C],SMILES
1,220 to 223,COC(=O)CNS(=O)(=O)c1ccc(CCN2CC=C(c3c[nH]c(-c4ccc(F)cc4)c3-c3ccncc3)CC2)cc1
2,75,COc1ccc2c(-c3ccc(OCCN4CCCC4)cc3)c(Cc3ccc(Cl)cc3)oc2c1
3,155 to 158,O=C(N[C@@H](CS)C(=O)O)C(Sc1nc2cc(Cl)ccc2s1)c1ccccc1 (stereo partly specified)
4,196 to 197,COc1ccc2nc3snc(C(=O)c4ncc(C)c(OC)c4C)n3c2c1
5,119 to 121,COC(=O)C1=Cc2cc(-c3ccc(OCCOC(C)C)cc3)ccc2N(S(C)(=O)=O)CC1
6,119 to 121,COC(=O)CC(Nc1ccccc1OC)c1ccc2ccccc2n1 (stereo unspecified)
7,156 to 157,COc1ccc(-c2coc3ccc(-c4nnc(SC)o4)cc23)cc1
8,95 to 97,Cc1nc(-c2ccccc2)n(C)c1C=NOCCO
9,216,CC1(C)Oc2ccc(C(=O)CO)cc2[C@H](NC(=O)c2ccc(F)cc2)[C@H]1O
10,60,O=C(c1ccc(F)cc1)c1cc(F)ccc1OCCCCl
11,226 to 228,CCOC(=O)C(C)(C)Sc1ccc(NCCn2c(C)nc3ccccc3c2=O)cc1
12,182 to 183,CC(=Cc1ccc2ccccc2n1)C(=O)NO
13,77 to 79,CN(C)CCCCNC(=O)Cn1ncc(-c2ccccc2)c1-c1ccccc1
14,174,CCc1nnc(-c2ccc([N+](=O)[O-])cc2)n1-c1ccc(OC)cc1
15,158 to 160,CCCSc1ncc(C(=O)O)n1Cc1ccccc1Cl
16,160 to 164,CCOC(=O)C1=C(COCC#CC(O)c2ccccc2)NC(C)=C(C(=O)OC)C1c1cccc(Cl)c1Cl (stereo unspecified)
17,259 to 261,COc1ccc2c(c1)Cc1ccc(C(=O)O)cc1O2
18,151 to 153,COc1cc2cccc(OC)c2cc1C(=O)O
19,200 to 201,COc1cc(OC)cc(N2CCN(C(=O)Nc3cc4ccccc4nc3OC)CC2)c1
20,280 to 282,Cn1ccc(-c2sc(NC(=O)c3ccncc3)nc2-c2ccco2)cc1=O
21,132 to 134,COc1ccc(C2=NN(C(=O)c3cccnc3)CC2)cc1
22,183 to 184,COc1ccc(-c2cccn2-c2ccc(S(N)(=O)=O)cc2)cc1
23,106 to 108,CC(C)(O)c1ccc(CNC(=O)c2cccnc2Oc2cccc(F)c2)cc1
24,79.4 to 80.3,CSc1cc2cc(-c3ccccc3)ccc2cc1OS(=O)(=O)C(F)(F)F
25,290 to 292,COc1ccc(-c2cnc3[nH]cc(C(N)=O)c3n2)cc1OC
